In US7897620B2, “Methods of using anti-inflammatory compounds” (Cambridge Enterprise Limited, priority 2007, dated 2011):

Legend:
[1] = Pharmacokinetics following a single dose in rat (LC-MS/MS of blood, one-compartment model); format: in vivo; conditions: single oral dose
Experimental: Compounds were administered as a single dose (either 1 mg/kg bodyweight in 5% DMSO via the intravenous route or 3 mg/kg in 1% carboxymethylcellulose via the oral route) to three adult rats (using different rats for each compound and each route of administration).
Blood was then sampled at various time points (including just prior to dose administration) out to 24 hrs post dose, and the level of the various compounds was assessed using a validated LC-MS/MS assay. Briefly, 3-5 μl of the deproteinised sample was applied to a Waters Atlantis (C18 20×2.1 mm, 3 μm bead size) reverse phase chromatography column equilibrated in 0.1% formic acid in 95:5 water:actetonitrile. Over 3.5 minutes bound material was gradient eluted reaching 0.1% formic acid in 5:95 water:acetonitrile, followed by a step gradient back to 0.1% formic acid in 95:5 water:acetonitrile. The column eluent was then directed to an Applied Biosystems API 4000/3200 QTrap MS/MS mass spectrometer, with a Turbolonspray™ ion source operating in positive ion mode. The interface temperature was set at 650° C., with a 40 ms dwell time for each MRM transition, monitoring the following ions:
The internal standard in each determination was the related compound (S)-3-(2′,2′-dimethylpropanoylamino)-caprolactam, which was spiked into the sample prior to deproteinization. The lower limit of quantitation (LLOQ) for this assay was 2.4 ng/ml for each compound except (I′), where it was 38.1 ng/ml.
Following LC-MS/MS analysis of each collected sample, the pharmacokinetic disposition of the compound was modelled using Kinetica software, a well known software package for such applications.

[2] = Water solubility (observation); format: physicochemical
[3] = tested on: chemokine-induced migration; experiment: BSCI activity in vitro, chemokine-induced migration (general statements); format: cell-based; conditions: prior art peptides compared
[4] = in vivo, cited from earlier work
[5] = Potency in vivo, model not stated; conditions: prior art peptides compared

Row | Compound | exposure following a single oral dose, fold higher than the other lactam BSCIs tested [1] | water solubility [2] | fold less potent in vitro [3] [fold] | half-life period of clearance from blood plasma ([4]; iv) | oral bioavailability ([4]; po) | fold less potent in vivo [5]
1 | CC(C)(C)C(=O)NC1CCCNC1=O (stereo not drawn) [Compound (I), 3-(2′,2′-dimethylpropanoylamino)-tetrahydropyridin-2-one] | more than 10 fold | significant water solubility |  |  |  | 
2 | c(DCys-DGln-DIle-DTrp-DLys-DGln-DLys-DPro-DAsp-DLeu-DCys)-NH2 [NR58-3.14.3] |  |  | > 25 | less than 30 minutes | not orally bioavailable | > 10,000 fold
